Experiments:
[1] = biological target: Vascular endothelial growth factor receptor 3 (Homo sapiens) (UniProt P35916); assay: Binding affinity to wild-type human partial length FLT4 (E821 to E1196 residues) expressed in bacterial expression system assessed as residual binding level at 1 uM by Kinomescan method relative to control
[2] = biological target: Tyrosine-protein kinase Mer (Homo sapiens) (UniProt Q12866); assay: Binding affinity to wild-type human partial length MERTK (R557 to L884 residues) expressed in bacterial expression system assessed as residual binding level at 1 uM by Kinomescan method relative to control
[3] = biological target: Mitogen-activated protein kinase 10 (Homo sapiens) (UniProt P53779); assay: Binding affinity to wild-type human partial length JNK3 (V28 to Q422 residues) expressed in mammalian expression system assessed as residual binding level at 1 uM by Kinomescan method relative to control
[4] = biological target: Mitogen-activated protein kinase kinase kinase kinase 3 (Homo sapiens) (UniProt Q8IVH8); assay: Binding affinity to wild-type human partial length MAP4K3 (M1 to D301 residues) expressed in bacterial expression system assessed as residual binding level at 1 uM by Kinomescan method relative to control
[5] = biological target: Mitogen-activated protein kinase kinase kinase 20 (Homo sapiens) (UniProt Q9NYL2); assay: Binding affinity to wild-type human partial length ZAK (M1 to L331 residues) expressed in bacterial expression system assessed as residual binding level at 1 uM by Kinomescan method relative to control
[6] = biological target: Mitogen-activated protein kinase kinase kinase 7 (Homo sapiens) (UniProt O43318); assay: Binding affinity to wild-type human partial length TAK1 (M1 to Q303 residues) expressed in mammalian expression system assessed as residual binding level at 1 uM by Kinomescan method relative to control
[7] = biological target: Serine/threonine-protein kinase 17A (Homo sapiens) (UniProt Q9UEE5); assay: Binding affinity to wild-type human partial length DRAK1 (R32 to E363 residues) expressed in bacterial expression system assessed as residual binding level at 1 uM by Kinomescan method relative to control
[8] = biological target: Cyclin-dependent kinase 8 (Homo sapiens) (UniProt P49336); assay: Binding affinity to wild-type human partial length CDK8 (M1 to T360 residues) expressed in bacterial expression system assessed as residual binding level at 1 uM by Kinomescan method relative to control
[9] = biological target: Serine/threonine-protein kinase PLK1 (Homo sapiens) (UniProt P53350); assay: Binding affinity to wild-type human partial length PLK1 (A33 to F325 residues) expressed in mammalian expression system assessed as residual binding level at 1 uM by Kinomescan method relative to control
[10] = test system: Mast/stem cell growth factor receptor Kit (Homo sapiens), P10721 [UNDEFINED MUTATION]; assay: Binding affinity to human partial length KIT V559D/[…] double mutant (Y545 to D952 residues) expressed in bacterial expression system assessed as residual binding level at 1 uM by Kinomescan method relative to control
[11] = biological target: RAC-alpha serine/threonine-protein kinase (Homo sapiens) (UniProt P31749); assay: Binding affinity to wild-type human partial length AKT1 expressed in bacterial expression system assessed as residual binding level at 1 uM by Kinomescan method relative to control
[12] = biological target: Cyclin-G-associated kinase (Homo sapiens) (UniProt O14976); assay: Binding affinity to wild-type human partial length GAK (G13 to Y338 residues) expressed in bacterial expression system assessed as residual binding level at 1 uM by Kinomescan method relative to control
[13] = biological target: ALK tyrosine kinase receptor (Homo sapiens) (UniProt Q9UM73); assay: Binding affinity to wild-type human partial length ALK (I1088 to E1409 residues) expressed in mammalian expression system assessed as residual binding level at 1 uM by Kinomescan method relative to control
[14] = biological target: Protein-tyrosine kinase 2-beta (Homo sapiens) (UniProt Q14289); assay: Binding affinity to wild-type human full length PYK2 (M1 to E967 residues) expressed in bacterial expression system assessed as residual binding level at 1 uM by Kinomescan method relative to control
[15] = test system: Tyrosine-protein kinase ABL1 (Homo sapiens), P00519 [H396P]; assay: Binding affinity to human non-phosphorylated ABL1 H396P mutant (S229 to K512 residues) expressed in mammalian expression system assessed as residual binding level at 1 uM by Kinomescan method relative to control
[16] = biological target: Ephrin type-A receptor 8 (Homo sapiens) (UniProt P29322); assay: Binding affinity to wild-type human partial length EPHA8 (Q608 to C920 residues) expressed in bacterial expression system assessed as residual binding level at 1 uM by Kinomescan method relative to control
[17] = biological target: Phosphorylase b kinase gamma catalytic chain, liver/testis isoform (Homo sapiens) (UniProt P15735); assay: Binding affinity to wild-type human partial length PHKG2 (M1 to W300 residues) expressed in bacterial expression system assessed as residual binding level at 1 uM by Kinomescan method relative to control
[18] = biological target: Calcium/calmodulin-dependent protein kinase type 1G (Homo sapiens) (UniProt Q96NX5); assay: Binding affinity to wild-type human partial length CAMK1G (M1 to A342 residues) expressed in bacterial expression system assessed as residual binding level at 1 uM by Kinomescan method relative to control
[19] = test system: Phosphatidylinositol 4,5-bisphosphate 3-kinase catalytic subunit alpha isoform (Homo sapiens), P42336 [H1047L]; assay: Binding affinity to human partial length PIK3CA H1047L mutant (R108 to N1068 residues) expressed in mammalian expression system assessed as residual binding level at 1 uM by Kinomescan method relative to control
[20] = biological target: Maternal embryonic leucine zipper kinase (Homo sapiens, UniProt Q14680); assay: Inhibition of recombinant human MELK expressed in Escherichia coli using ZIPtide as substrate measured after 0.5 hrs by ADP-Glo assay
[21] = biological target: Interleukin-1 receptor-associated kinase 3 (Homo sapiens) (UniProt Q9Y616); assay: Binding affinity to wild-type human partial length IRAK3 (V147 to E596 residues) expressed in bacterial expression system assessed as residual binding level at 1 uM by Kinomescan method relative to control
[22] = test system: Hepatocyte growth factor receptor (Homo sapiens), P08581 [Y1235D]; assay: Binding affinity to human partial length MET Y1235D mutant (D1010 to S1367 residues) expressed in bacterial expression system assessed as residual binding level at 1 uM by Kinomescan method relative to control
[23] = biological target: Aurora kinase A (Homo sapiens) (UniProt O14965); assay: Binding affinity to wild-type human partial length AURKA (E122 to K401 residues) expressed in mammalian expression system assessed as residual binding level at 1 uM by Kinomescan method relative to control
[24] = biological target: Serine/threonine-protein kinase RIO2 (Homo sapiens) (UniProt Q9BVS4); assay: Binding affinity to wild-type human partial length RIOK2 (M1 to D313 residues) expressed in mammalian expression system assessed as residual binding level at 1 uM by Kinomescan method relative to control
[25] = biological target: Ribosomal protein S6 kinase alpha-2 (Homo sapiens) (UniProt Q15349); assay: Binding affinity to wild-type human partial length C-terminal RSK3 kinase domain 2 (V403 to K700 residues) expressed in bacterial expression system assessed as residual binding level at 1 uM by Kinomescan method relative to control
Sequence of Ribosomal protein S6 kinase alpha-2 (Homo sapiens) (Q15349 whole entry, the tested form may be a part): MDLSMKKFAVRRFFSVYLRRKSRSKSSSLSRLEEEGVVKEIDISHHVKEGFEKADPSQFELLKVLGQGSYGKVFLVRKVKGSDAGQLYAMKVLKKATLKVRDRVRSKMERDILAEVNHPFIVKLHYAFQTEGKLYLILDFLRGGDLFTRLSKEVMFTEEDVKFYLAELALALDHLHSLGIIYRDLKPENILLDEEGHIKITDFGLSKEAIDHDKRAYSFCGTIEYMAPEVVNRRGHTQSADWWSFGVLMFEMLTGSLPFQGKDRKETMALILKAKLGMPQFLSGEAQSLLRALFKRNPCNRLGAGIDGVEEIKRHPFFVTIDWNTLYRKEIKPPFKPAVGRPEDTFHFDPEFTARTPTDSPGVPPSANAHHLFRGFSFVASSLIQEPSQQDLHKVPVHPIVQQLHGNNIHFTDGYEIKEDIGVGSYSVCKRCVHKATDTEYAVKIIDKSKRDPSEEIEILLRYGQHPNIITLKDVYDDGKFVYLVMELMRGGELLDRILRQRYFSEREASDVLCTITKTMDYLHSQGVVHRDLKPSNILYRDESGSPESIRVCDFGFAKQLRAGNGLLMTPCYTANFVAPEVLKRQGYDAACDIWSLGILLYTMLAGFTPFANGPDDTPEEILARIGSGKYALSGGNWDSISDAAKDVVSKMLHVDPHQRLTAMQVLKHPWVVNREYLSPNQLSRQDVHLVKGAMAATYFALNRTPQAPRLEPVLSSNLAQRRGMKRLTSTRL

Sequence of Mitogen-activated protein kinase kinase kinase kinase 3 (Homo sapiens) (Q8IVH8 whole entry, the tested form may be a part): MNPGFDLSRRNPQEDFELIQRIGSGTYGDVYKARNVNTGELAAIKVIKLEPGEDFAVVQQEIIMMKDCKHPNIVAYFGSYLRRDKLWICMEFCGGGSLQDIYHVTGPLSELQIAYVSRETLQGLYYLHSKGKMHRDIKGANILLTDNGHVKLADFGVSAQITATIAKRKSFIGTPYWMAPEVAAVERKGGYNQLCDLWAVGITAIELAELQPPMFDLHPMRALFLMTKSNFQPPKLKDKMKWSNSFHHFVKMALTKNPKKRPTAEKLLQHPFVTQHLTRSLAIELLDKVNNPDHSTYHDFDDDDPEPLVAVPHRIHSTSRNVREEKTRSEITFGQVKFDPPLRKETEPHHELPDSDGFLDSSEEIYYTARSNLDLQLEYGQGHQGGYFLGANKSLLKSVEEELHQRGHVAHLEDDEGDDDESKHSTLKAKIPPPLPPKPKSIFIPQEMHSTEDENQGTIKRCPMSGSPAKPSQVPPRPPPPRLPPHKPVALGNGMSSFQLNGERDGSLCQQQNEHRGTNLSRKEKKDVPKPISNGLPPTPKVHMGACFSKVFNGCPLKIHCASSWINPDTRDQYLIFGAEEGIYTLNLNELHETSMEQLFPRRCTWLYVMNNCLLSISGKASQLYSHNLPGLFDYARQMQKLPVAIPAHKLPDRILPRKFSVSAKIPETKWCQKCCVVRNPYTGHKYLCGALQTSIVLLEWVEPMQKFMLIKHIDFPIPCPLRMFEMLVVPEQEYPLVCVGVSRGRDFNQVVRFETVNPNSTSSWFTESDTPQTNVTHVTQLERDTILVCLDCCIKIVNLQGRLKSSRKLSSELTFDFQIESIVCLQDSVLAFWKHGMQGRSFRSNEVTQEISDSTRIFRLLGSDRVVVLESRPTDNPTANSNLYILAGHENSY
Sequence of Cyclin-dependent kinase 8 (Homo sapiens) (P49336 whole entry, the tested form may be a part): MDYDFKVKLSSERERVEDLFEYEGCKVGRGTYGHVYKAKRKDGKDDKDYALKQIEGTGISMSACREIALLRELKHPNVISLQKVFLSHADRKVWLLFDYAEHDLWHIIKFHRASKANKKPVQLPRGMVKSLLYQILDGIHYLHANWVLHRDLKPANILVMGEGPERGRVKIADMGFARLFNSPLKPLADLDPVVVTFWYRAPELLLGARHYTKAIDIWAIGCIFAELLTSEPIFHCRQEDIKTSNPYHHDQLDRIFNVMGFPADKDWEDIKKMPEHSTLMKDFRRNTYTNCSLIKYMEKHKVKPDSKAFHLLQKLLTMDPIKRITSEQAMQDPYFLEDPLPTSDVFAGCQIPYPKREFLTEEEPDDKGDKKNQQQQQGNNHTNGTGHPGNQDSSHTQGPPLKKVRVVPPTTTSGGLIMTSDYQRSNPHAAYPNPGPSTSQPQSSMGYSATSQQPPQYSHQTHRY
Sequence of RAC-alpha serine/threonine-protein kinase (Homo sapiens) (P31749 whole entry, the tested form may be a part): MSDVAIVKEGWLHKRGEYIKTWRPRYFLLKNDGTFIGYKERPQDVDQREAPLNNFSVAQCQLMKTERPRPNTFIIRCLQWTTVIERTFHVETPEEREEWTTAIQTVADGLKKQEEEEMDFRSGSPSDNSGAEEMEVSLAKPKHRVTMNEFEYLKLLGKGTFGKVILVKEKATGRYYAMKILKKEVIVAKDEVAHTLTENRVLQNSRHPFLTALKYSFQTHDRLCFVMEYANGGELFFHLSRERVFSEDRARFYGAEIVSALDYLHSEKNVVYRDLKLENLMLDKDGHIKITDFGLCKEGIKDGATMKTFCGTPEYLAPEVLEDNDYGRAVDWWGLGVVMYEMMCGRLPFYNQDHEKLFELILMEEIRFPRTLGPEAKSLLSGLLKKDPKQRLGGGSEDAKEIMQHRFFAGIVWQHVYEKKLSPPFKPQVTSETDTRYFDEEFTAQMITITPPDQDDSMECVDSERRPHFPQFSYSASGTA
Sequence of Ephrin type-A receptor 8 (Homo sapiens) (P29322 whole entry, the tested form may be a part, canonical isoform): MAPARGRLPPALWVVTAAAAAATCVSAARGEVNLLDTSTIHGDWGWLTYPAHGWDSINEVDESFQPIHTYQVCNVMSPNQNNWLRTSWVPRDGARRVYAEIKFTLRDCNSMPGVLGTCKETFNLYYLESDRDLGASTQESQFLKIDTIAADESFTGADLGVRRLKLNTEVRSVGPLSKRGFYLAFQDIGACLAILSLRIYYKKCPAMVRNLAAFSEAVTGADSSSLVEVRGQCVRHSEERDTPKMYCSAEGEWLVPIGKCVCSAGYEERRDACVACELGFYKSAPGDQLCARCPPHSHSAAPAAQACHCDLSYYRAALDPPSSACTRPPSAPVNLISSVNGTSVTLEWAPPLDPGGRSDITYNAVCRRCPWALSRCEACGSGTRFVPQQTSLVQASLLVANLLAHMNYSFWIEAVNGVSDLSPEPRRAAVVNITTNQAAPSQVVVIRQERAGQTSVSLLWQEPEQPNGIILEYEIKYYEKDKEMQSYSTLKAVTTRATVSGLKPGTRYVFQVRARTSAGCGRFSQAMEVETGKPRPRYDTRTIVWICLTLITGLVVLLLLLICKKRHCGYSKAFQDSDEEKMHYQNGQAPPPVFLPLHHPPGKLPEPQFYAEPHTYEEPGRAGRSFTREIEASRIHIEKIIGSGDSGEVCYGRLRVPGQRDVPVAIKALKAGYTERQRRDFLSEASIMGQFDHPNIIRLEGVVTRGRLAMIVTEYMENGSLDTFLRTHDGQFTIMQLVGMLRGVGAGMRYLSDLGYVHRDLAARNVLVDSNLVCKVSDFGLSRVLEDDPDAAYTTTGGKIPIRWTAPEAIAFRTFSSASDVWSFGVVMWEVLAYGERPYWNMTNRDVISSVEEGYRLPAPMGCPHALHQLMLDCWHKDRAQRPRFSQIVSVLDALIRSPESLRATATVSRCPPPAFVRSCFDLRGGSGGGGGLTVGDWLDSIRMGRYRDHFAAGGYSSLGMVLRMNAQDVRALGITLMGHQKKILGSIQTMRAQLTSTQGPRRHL
Sequence of Phosphatidylinositol 4,5-bisphosphate 3-kinase catalytic subunit alpha isoform (Homo sapiens), P42336 [H1047L] (P42336 whole entry H1047L, the tested form may be a part, canonical isoform): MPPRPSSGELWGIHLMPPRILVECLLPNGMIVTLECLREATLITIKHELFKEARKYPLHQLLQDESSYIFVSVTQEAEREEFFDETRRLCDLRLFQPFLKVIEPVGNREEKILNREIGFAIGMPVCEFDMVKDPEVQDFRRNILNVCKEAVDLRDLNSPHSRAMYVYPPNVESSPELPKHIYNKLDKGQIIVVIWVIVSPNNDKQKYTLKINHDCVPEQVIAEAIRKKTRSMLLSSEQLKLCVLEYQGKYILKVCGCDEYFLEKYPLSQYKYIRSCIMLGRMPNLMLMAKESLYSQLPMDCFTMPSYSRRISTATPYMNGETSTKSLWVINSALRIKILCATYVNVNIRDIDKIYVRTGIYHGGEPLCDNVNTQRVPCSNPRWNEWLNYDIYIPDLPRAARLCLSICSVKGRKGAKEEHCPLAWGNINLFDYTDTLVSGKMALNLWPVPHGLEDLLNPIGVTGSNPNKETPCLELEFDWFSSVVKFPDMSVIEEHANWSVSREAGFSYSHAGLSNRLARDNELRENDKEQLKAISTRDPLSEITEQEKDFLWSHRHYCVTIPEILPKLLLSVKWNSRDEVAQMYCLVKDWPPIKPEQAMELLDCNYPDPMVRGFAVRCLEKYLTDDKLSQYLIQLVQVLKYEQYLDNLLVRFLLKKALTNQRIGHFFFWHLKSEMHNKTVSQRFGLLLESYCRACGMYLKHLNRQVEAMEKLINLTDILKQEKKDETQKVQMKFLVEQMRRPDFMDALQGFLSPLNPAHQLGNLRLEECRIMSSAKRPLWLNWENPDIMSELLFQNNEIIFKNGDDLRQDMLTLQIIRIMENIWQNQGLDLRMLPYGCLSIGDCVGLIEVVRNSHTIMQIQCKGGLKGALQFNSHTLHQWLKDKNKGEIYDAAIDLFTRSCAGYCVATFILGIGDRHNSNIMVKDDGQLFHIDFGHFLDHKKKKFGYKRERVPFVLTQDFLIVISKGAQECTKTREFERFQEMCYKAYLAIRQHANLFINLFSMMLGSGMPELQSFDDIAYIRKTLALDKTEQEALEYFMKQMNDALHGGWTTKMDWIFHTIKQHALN
Sequence of Phosphorylase b kinase gamma catalytic chain, liver/testis isoform (Homo sapiens) (P15735 whole entry, the tested form may be a part, canonical isoform): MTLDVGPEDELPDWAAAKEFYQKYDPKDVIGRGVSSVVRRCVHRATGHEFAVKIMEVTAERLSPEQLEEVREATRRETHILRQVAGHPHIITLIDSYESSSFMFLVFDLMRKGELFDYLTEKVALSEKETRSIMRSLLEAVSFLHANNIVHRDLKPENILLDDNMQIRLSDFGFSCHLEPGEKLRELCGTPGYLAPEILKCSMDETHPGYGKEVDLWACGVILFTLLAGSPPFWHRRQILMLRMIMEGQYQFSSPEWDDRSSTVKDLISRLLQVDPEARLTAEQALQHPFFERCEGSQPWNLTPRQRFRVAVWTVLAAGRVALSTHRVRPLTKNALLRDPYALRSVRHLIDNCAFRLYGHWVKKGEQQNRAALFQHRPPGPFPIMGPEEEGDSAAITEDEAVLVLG

CC(C)Nc1sc(C(=O)c2ccc(Cl)s2)c(N)c1C#N
Activity [1]: 50%
Activity [2]: 100%
Activity [3]: 100%
Activity [4]: 59%
Activity [5]: 95%
Activity [6]: 100%
Activity [7]: 61%
Activity [8]: 84%
Activity [9]: 100%
Activity [10]: 57%
Activity [11]: 84%
Activity [12]: 24%
Activity [13]: 100%
Activity [14]: 100%
Activity [15]: 100%
Activity [16]: 86%
Activity [17]: 72%
Activity [18]: 68%
Activity [19]: 99%
IC50 [20]: 0.192 µM
Activity [21]: 86%
Activity [22]: 73%
Activity [23]: 100%
Activity [24]: 100%
Activity [25]: 98%
